Experiments:
human AXL (473-end) = target: T1, human AXL (473-end) (Homo sapiens, UniProt P30530); experiment: HTRF kinase activity biochemical assay, AXL; details: 10 μM ATP, 30 minutes pre-incubation
T1 construct: human AXL (473-end); purchased SignalChem, Canada
T1 sequence (P30530 473-894 limits assumed): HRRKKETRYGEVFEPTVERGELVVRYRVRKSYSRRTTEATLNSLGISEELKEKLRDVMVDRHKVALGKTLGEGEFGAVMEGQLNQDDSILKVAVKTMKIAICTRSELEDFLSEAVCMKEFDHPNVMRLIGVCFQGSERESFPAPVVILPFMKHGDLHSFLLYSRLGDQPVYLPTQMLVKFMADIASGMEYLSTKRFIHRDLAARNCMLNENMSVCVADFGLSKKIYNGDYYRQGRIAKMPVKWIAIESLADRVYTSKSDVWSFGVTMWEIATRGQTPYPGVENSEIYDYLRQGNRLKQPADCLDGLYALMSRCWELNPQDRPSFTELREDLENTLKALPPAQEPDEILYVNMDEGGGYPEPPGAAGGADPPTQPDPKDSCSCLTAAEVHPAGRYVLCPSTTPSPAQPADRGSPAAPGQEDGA

human MER (528-end) = target: T2, human MER (528-end) (Homo sapiens, UniProt Q12866); experiment: HTRF kinase activity biochemical assay, MER; details: 10 μM ATP, 30 minutes pre-incubation; read-out: HTRF MERTK IC50
T2 construct: human MER (528-end); purchased Camnabio, Japan
T2 sequence (Q12866 528-999 limits assumed): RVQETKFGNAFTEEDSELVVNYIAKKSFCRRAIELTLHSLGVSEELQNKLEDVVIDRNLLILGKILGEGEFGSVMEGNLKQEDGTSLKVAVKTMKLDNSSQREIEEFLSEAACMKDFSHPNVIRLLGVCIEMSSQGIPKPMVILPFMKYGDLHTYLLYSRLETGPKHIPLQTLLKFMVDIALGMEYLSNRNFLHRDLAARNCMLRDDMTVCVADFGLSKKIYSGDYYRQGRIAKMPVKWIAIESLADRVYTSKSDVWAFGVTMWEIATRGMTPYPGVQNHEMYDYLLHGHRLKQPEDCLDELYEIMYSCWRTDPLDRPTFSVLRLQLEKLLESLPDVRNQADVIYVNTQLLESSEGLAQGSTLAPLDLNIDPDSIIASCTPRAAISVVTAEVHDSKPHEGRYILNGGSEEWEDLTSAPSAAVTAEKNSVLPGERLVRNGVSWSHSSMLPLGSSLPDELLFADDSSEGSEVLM

human TYRO3 (455-end) = target: T3, human TYRO3 (455-end) (Homo sapiens, UniProt Q06418); experiment: HTRF kinase activity biochemical assay, TYRO3; details: 10 μM ATP, 30 minutes pre-incubation; read-out: HTRF TYRO IC50
T3 construct: TYRO3 (455-end); purchased SignalChem, Canada
T3 sequence (Q06418 455-890 limits assumed): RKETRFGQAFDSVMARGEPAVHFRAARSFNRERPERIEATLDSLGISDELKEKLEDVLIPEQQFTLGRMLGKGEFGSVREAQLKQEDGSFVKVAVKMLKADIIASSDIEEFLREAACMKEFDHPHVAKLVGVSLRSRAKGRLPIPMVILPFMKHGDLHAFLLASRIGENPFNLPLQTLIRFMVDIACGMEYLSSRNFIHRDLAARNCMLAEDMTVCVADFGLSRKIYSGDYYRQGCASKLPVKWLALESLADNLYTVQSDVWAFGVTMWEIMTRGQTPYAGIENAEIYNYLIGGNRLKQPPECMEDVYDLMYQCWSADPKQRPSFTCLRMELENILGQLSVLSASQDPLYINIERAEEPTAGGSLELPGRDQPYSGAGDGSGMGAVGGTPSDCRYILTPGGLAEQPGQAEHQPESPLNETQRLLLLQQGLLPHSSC

Compound	IC50 (human AXL (473-end)) [nM]	IC50 (human MER (528-end)) [nM]	IC50 (human TYRO3 (455-end)) [nM]
CN(CCC(O)CO)C1CCc2cc(-c3ccc(CO[C@H]4CCC[C@@H]4NC(=O)c4cc(-c5ccc(F)nc5)cnc4N)cc3)ccc21 (stereo partly drawn) [Example 126, 6-amino-N-{(1S,2S)-2-[(4-{1-[(3,4-dihydroxybutyl)(methyl)amino]-2,3-dihydro-1H-inden-5-yl}phenyl)methoxy]cyclopentyl}-6′-fluoro[3,3′-bipyridine]-5-carboxamide]	100 to 1000	10 to 100	> 1000
CN1CCN(C2CC(C)(C)c3cc(-c4ccc(CO[C@H]5CCC[C@@H]5NC(=O)c5cc(-c6cccnc6F)cnc5N)cc4)ccc32)CC1 (stereo partly drawn) [Example 108, 6-amino-N-[(1S,2S)-2-({4-[3,3-dimethyl-1-(4-methylpiperazin-1-yl)-2,3-dihydro-1H-inden-5-yl]phenyl}methoxy)cyclopentyl]-2′-fluoro[3,3′-bipyridine]-5-carboxamide]	< 10	< 10	10 to 100
CN1CCN([C@H]2CCc3cc(-c4ccc(CO[C@H]5CCC[C@@H]5NC(=O)c5cc(C(F)(F)F)cnc5N)cc4)ccc32)CC1 [Example 143, 2-amino-N-[(1S,2S)-2-({4-[(1S)-1-(4-methylpiperazin-1-yl)-2,3-dihydro-1H-inden-5-yl]phenyl}methoxy)cyclopentyl]-5-(trifluoromethyl)pyridine-3-carboxamide]	< 10	< 10	100 to 1000
COc1ccnc(N)c1C(=O)N[C@H]1CCC[C@@H]1OCc1ccc(-c2ccc3c(c2)CC[C@@H]3N2CCN(C)CC2)cc1 [Example 139, 2-amino-4-methoxy-N-[(1S,2S)-2-({4-[(1S)-1-(4-methylpiperazin-1-yl)-2,3-dihydro-1H-inden-5-yl]phenyl}methoxy)cyclopentyl]pyridine-3-carboxamide]	< 10	< 10	100 to 1000
Nc1ncc(-c2cccnc2F)cc1C(=O)N[C@H]1CCC[C@@H]1OCc1ccc(-c2ccc3c(c2)CC[C@@H]3N2CCN(C(CO)CO)CC2)cc1 [Example 129, 6-amino-N-{(1S,2S)-2-[(4-{(1S)-1-[4-(1,3-dihydroxypropan-2-yl)piperazin-1-yl]-2,3-dihydro-1H-inden-5-yl}phenyl)methoxy]cyclopentyl}-2′-fluoro[3,3′-bipyridine]-5-carboxamide]	< 10	< 10	> 1000
CN1CCN(C2CC(C)(C)c3cc(-c4ccc(CO[C@H]5CCC[C@@H]5NC(=O)c5cc(-c6ccn(C)c(=O)c6)cnc5N)cc4)ccc32)CC1 (stereo partly drawn) [Example 107, 6-amino-N-[(1S,2S)-2-({4-[3,3-dimethyl-1-(4-methylpiperazin-1-yl)-2,3-dihydro-1H-inden-5-yl]phenyl}methoxy)cyclopentyl]-1′-methyl-2′-oxo-1′,2′-dihydro[3,4′-bipyridine]-5-carboxamide]	< 10	< 10	10 to 100
CN1CCN([C@H]2CC(C)(C)c3cc(-c4ccc(CO[C@H]5CCC[C@@H]5NC(=O)c5cc(-c6cccnc6F)cnc5N)cc4)ccc32)CC1 [Example 150, 6-amino-N-[(1S,2S)-2-({4-[(1S)-3,3-dimethyl-1-(4-methylpiperazin-1-yl)-2,3-dihydro-1H-inden-5-yl]phenyl}methoxy)cyclopentyl]-2′-fluoro[3,3′-bipyridine]-5-carboxamide]	< 10	< 10	10 to 100

Other lines, results leading:

IC50 (human AXL (473-end)) [nM]	IC50 (human MER (528-end)) [nM]	IC50 (human TYRO3 (455-end)) [nM]	Compound
< 10	10 to 100	> 1000	CN(C)C1c2ccc(-c3ccc(CO[C@H]4CCC[C@@H]4NC(=O)c4cc(-c5cnn(C)c5)cnc4N)cc3)cc2CC1(C)C (stereo partly drawn) [Example 109, 2-amino-N-[(1S,2S)-2-({4-[1-(dimethylamino)-2,2-dimethyl-2,3-dihydro-1H-inden-5-yl]phenyl}methoxy)cyclopentyl]-5-(1-methyl-1H-pyrazol-4-yl)pyridine-3-carboxamide]
< 10	< 10	10 to 100	Cc1nc(-c2cnc(N)c(C(=O)N[C@H]3CCC[C@@H]3OCc3ccc(-c4ccc5c(c4)CC[C@@H]5N4CCN(CCO)CC4)cc3)c2)cs1 [Example 180, 2-amino-N-{(1S,2S)-2-[(4-{(1S)-1-[4-(2-hydroxyethyl)piperazin-1-yl]-2,3-dihydro-1H-inden-5-yl}phenyl)methoxy]cyclopentyl}-5-(2-methyl-1,3-thiazol-4-yl)pyridine-3-carboxamide]
< 10	< 10	> 1000	Nc1ncc(-c2ccc(F)nc2)cc1C(=O)N[C@H]1CCC[C@@H]1OCc1ccc(-c2ccc3c(c2)C[C@H](F)[C@@H]3N2CCN(CCO)CC2)cc1 (relative stereo) [Example 89, 6-amino-6′-fluoro-N-{(1S,2S)-2-[(4-{(1R*,2S*)-2-fluoro-1-[4-(2-hydroxyethyl)piperazin-1-yl]-2,3-dihydro-1H-inden-5-yl}phenyl)methoxy]cyclopentyl}[3,3′-bipyridine]-5-carboxamide]
< 10	< 10	< 10	CCCC1(C)CN(C2CCN(CCO)CC2)c2ccc(-c3ccc(CO[C@H]4CCC[C@@H]4NC(=O)c4cc(-c5cnn(C)c5)cnc4N)cc3)cc21 (mixture of isomers) [Example 39, 2-amino-N-{(1S,2S)-2-[(4-{1-[1-(2-hydroxyethyl)piperidin-4-yl]-3-methyl-3-propyl-2,3-dihydro-1H-indol-5-yl}phenyl)methoxy]cyclopentyl}-5-(1-methyl-1H-pyrazol-4-yl)pyridine-3-carboxamide]
< 10	< 10	100 to 1000	CN(C)CCn1ccc2cc(-c3ccc(CO[C@H]4CCC[C@@H]4NC(=O)c4cc(-c5cnn(C)c5)cnc4N)cc3)ccc21 [Example 70, 2-amino-N-{(1S,2S)-2-[(4-{1-[2-(dimethylamino)ethyl]-1H-indol-5-yl}phenyl)methoxy]cyclopentyl}-5-(1-methyl-1H-pyrazol-4-yl)pyridine-3-carboxamide]
10 to 100	< 10	> 1000	Cn1cc(-c2cnc(N)c(C(=O)N[C@H]3CCC[C@@H]3OCc3ccc(-c4ccc5c(C6CCN(CCO)CC6)cn(C)c5c4)cc3)c2)cn1 [Example 26, 2-amino-N-{(1S,2S)-2-[(4-{3-[1-(2-hydroxyethyl)piperidin-4-yl]-1-methyl-1H-indol-6-yl}phenyl)methoxy]cyclopentyl}-5-(1-methyl-1H-pyrazol-4-yl)pyridine-3-carboxamide]
< 10	< 10	10 to 100	Cn1cc(-c2cnc(N)c(C(=O)N[C@H]3CCC[C@@H]3OCc3ccc(-c4cnc5c(c4)C(C)(C)CCN5C4CCN(CCO)CC4)cc3)c2)cn1 [Example 158, 2-amino-N-{(1S,2S)-2-[(4-{8-[1-(2-hydroxyethyl)piperidin-4-yl]-5,5-dimethyl-5,6,7,8-tetrahydro-1,8-naphthyridin-3-yl}phenyl)methoxy]cyclopentyl}-5-(1-methyl-1H-pyrazol-4-yl)pyridine-3-carboxamide]
< 10	< 10	10 to 100	Cn1ccc(-c2cnc(N)c(C(=O)N[C@H]3CCC[C@@H]3OCc3ccc(-c4ccc5c(c4)C(C)(C)CN5C4CCN(CCO)CC4)cc3)c2)cc1=O [Example 30, 6-amino-N-{(1S,2S)-2-[(4-{1-[1-(2-hydroxyethyl)piperidin-4-yl]-3,3-dimethyl-2,3-dihydro-1H-indol-5-yl}phenyl)methoxy]cyclopentyl}-1′-methyl-2′-oxo-1′,2′-dihydro[3,4′-bipyridine]-5-carboxamide]
10 to 100	< 10	100 to 1000	Nc1ncc(-c2ccc(F)nc2)cc1C(=O)N[C@H]1CCC[C@@H]1OCc1ccc(-c2ccc3c(ccn3C3CCN(CCO)CC3)c2)cc1 [Example 22, 6-amino-6′-fluoro-N-{(1S,2S)-2-[(4-{1-[1-(2-hydroxyethyl)piperidin-4-yl]-1H-indol-5-yl}phenyl)methoxy]cyclopentyl}[3,3′-bipyridine]-5-carboxamide]

From US20260146035A1, “FUSED BICYCLIC COMPOUNDS AND THEIR USE AS MER AND AXL INHIBITORS” (DONG-A ST CO., LTD., priority 2022, published 2026)
